Measured values: patent publication US7799809B2, “Carboxamide compounds and their use as calpain inhibitors” (Abbott GmbH & Co. KG, priority 2006, dated 2010)

Key:
Type in all cases: biochemical
cathepsin B = molecular target: T1, cathepsin B (Homo sapiens, UniProt P07858); assay: Cathepsin B enzyme inhibition in vitro (kinetic fluorescence assay); conditions: cathepsin B isolated from human liver vs calpain I
T1 construct: cathepsin B—isolated from human liver (Calbiochem #219362); purchased Calbiochem 219362; host or cells: human liver (tissue-derived)
Protocol: (§1) The following solutions and buffers were employed: • HBS (for 40 ml): 800 μl M HEPES; 2.16 ml 100 mM KCl; 4.8 ml 1M NaCl; 3.59 ml 5% glucose; 60 μl μM MgSO4; 400 μl 100 mM Na pyruvate, 28.19 ml water; pH 7.2-7.5. • lysis buffer (for 20 ml): 400 μl M Tris pH 8.2; 2.74 ml 1M NaCl; 520 μl 0.5M EDTA; 2 ml 10% triton X-100; 0.8 ml (=1:25) CompletePlus (1 tablet/2 ml H2O); 200 μl 100 mM Pefabloc; 13.34 ml water, pH 8.2. • TBST (10×) (for 1 l): 100 mM Tris (12.1 g); 1.5M NaCl (87 g); 1% Tween 20 (10 g), adjusted to pH 8. I Enzyme Inhibition In Vitro: • Testing for blockade of the corresponding enzymic activities was carried out by means of kinetic fluorescence assays (excitation 390 nm, emission 460 nm). • Apparent Ki values were calculated from the experimentally determined IC50 values by the Cheng-Prussoff relation assuming a reversible competitive enzyme inhibition. The Km values of the substrates used under the assay conditions indicated above were: 90 μM (Z-Phe-Arg-AMC, cathepsin B), 10 μM (Z-Gly-Pro-Arg-AMC, cathepsin K), 2 μM (Z-Phe-Arg-AMC, cathepsin L), and 30 μM (Z-Val-Val-Arg-AMC, cathepsin S). • The indicated Ki values are averages of the inhibition constants calculated on the basis of 2 to 4 independent dose-effect plots.
(§2) The following assays were used: • 1. Calpain I: • 20 nM calpain-I—isolated from human erythrocytes (Calbiochem #208713), 100 μM Suc-Leu-Tyr-AMC (Bachem #1-1355) as substrate in buffer with 62 mM imidazole, 0.3 mM CaCl2, 0.10% CHAPS, 0.05% BSA, 1 mM DTT at pH 7.3 and room temperature. • 2. Cathepsin B: • 0.25 nM cathepsin B—isolated from human liver (Calbiochem #219362), 100 μM Z-Phe-Arg-AMC (Bachem #I-1160) as substrate 50 mM MES, 2 mM EDTA, 0.05% Brij 35, 2.5 mM L-cysteine, pH 6.0, room temperature. • 3. Cathepsin K: • 3 nM cathepsin K—activated from recombinant human procathepsin K from E. coli (Calbiochem #342001), 10 μM Z-Gly-Pro-Arg-AMC (Biomol #P-142) as substrate in 50 mM MES, 2 mM EDTA, 0.05% Brij 35, 2.5 mM L-cysteine, pH 6.0, room temperature. • 4. Cathepsin L: • 1 nM cathepsin L—isolated from human liver (Calbiochem #219402), 2 μM Z-Phe-Arg-AMC (Bachem #1-1160) as substrate in 50 mM MES, 2 mM EDTA, 0.05% Brij 35, 2.5 mM L-cysteine, pH 6.0, room temperature. • 5. Cathepsin S: • 0.5 nM recombinant human cathepsin S from E. coli (Calbiochem #219343), 20 μM Z-Val-Val-Arg-AMC (Bachem #1-1540) as substrate in 50 mM MES, 2 mM EDTA, 0.05% Brij 35, 2.5 mM L-cysteine, pH 6.0, room temperature. • The results of the in vitro determination are indicated in Table 1. The following abbreviations are used in Table 1: • The “Calpain activity” column, ++ stands for a calpain Ki (Ki(calpain)) of ≦40 nM and + means: 40 nM<Ki(Calpain)≦100 nM. • The “Sel. cat. B” column indicates the Ki(cathepsin B)/Ki(calpain) ratio. In this connection, ++ means a Ki(cathepsin B)/Ki(calpain) ratio of ≧30 and + means 10≦Ki(cathepsin B)/Ki(calpain)<30. • The “Sel. cat. K” column indicates the Ki(cathepsin K)/Ki(calpain) ratio. In this connection, ++ means a Ki(cathepsin K)/Ki(calpain) ratio of ≧30 and + means 10≦Ki(cathepsin K)/Ki(calpain)<30. • The “Sel. cat. L” column indicates the Ki(cathepsin L)/Ki(calpain) ratio. In this connection, ++ means a Ki(cathepsin L)/Ki(calpain) ratio of ≧50 and + means 30≦Ki(cathepsin L)/Ki(calpain)<50. • The “Sel. cat. S” column indicates the Ki(cathepsin S)/Ki(calpain) ratio. In this connection, ++ means a Ki(cathepsin S)/Ki(calpain) ratio of ≧100 and + means 50≦Ki(cathepsin S)/Ki(calpain)<100.

cathepsin S = molecular target: T2, cathepsin S (Homo sapiens, UniProt P25774); assay: Cathepsin S enzyme inhibition in vitro (kinetic fluorescence assay); conditions: recombinant human cathepsin S vs calpain I
T2 construct: purchased Calbiochem 219343; host or cells: E. coli
Protocol: as §1, §2

cathepsin L = molecular target: T3, cathepsin L (Homo sapiens, UniProt P07711); assay: Cathepsin L enzyme inhibition in vitro (kinetic fluorescence assay); conditions: cathepsin L isolated from human liver vs calpain I
T3 construct: cathepsin L—isolated from human liver (Calbiochem #219402); purchased Calbiochem 219402; host or cells: human liver (tissue-derived)
Protocol: as §1, §2

T2 sequence (P25774 115-331): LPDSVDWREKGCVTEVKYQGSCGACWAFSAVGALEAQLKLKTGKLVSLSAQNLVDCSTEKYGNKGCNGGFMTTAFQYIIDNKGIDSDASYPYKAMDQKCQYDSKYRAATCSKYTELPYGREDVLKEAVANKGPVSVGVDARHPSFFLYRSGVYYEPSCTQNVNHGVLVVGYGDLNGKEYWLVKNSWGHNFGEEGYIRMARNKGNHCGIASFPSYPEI
T3 sequence (P07711 114-333): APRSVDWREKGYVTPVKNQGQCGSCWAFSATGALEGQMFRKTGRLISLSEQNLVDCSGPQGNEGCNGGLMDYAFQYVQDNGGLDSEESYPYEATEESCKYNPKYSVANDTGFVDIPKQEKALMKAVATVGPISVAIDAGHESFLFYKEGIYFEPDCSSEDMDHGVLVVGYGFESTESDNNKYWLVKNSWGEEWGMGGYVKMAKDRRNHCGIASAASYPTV

Row | Molecule | Sel cat. B: Ki(cathepsin B)/Ki(calpain) ratio (cathepsin B) | Sel cat. S: Ki(cathepsin S)/Ki(calpain) ratio (cathepsin S) | Sel cat. L: Ki(cathepsin L)/Ki(calpain) ratio (cathepsin L)
1 | CCCCC(NC(=O)c1cc(Cl)cnc1-n1ccc(-c2ccccc2)n1)C(=O)C(N)=O (centres unmarked) [Example 28, N-{1-[Amino(oxo)acetyl]pentyl}-5-chloro-2-(3-phenyl-1H-pyrazol-1-yl)nicotinamide] | + (+ means 10≦Ki(cathepsin B)/Ki(calpain)<30) | – | –
2 | N-{3-Amino-1-[(4-fluorophenyl)methyl]-2,3-dioxopropyl}-2-[3-(2,3-dichlorophenyl)-1H-pyrazol-1-yl]pyridine-3-carboxamide [Example 161] | + (+ means 10≦Ki(cathepsin B)/Ki(calpain)<30) | ++ (++ means a Ki(cathepsin S)/Ki(calpain) ratio of ≧100) | + (+ means 30≦Ki(cathepsin L)/Ki(calpain)<50)
3 | NC(=O)C(=O)C(Cc1ccccc1)NC(=O)c1cccnc1-n1ccc(-c2ccc(N3CCCCC3)cc2)n1 (centres unmarked) [Example 64, N-(3-Amino-1-benzyl-2,3-dioxopropyl)-2-[3-(4-piperidin-1-ylphenyl)-1H-pyrazol-1-yl]nicotinamide] | + (+ means 10≦Ki(cathepsin B)/Ki(calpain)<30) | ++ (++ means a Ki(cathepsin S)/Ki(calpain) ratio of ≧100) | –
4 | Cc1cc(-c2ccccc2)nn1-c1ncccc1C(=O)NC(Cc1ccccc1)C(=O)C(N)=O (centres unmarked) [Example 61, N-(3-Amino-1-benzyl-2,3-dioxopropyl)-2-(5-methyl-3-phenyl-1H-pyrazol-1-yl)nicotinamide] | + (+ means 10≦Ki(cathepsin B)/Ki(calpain)<30) | ++ (++ means a Ki(cathepsin S)/Ki(calpain) ratio of ≧100) | –
5 | NC(=O)C(=O)C(Cc1cccs1)NC(=O)c1cccnc1-n1ccc(-c2ccccc2)n1 (centres unmarked) [Example 40, N-[3-Amino-2,3-dioxo-1-(2-thienylmethyl)propyl]-2-(3-phenyl-1H-pyrazol-1-yl)pyridine-3-carboxamide] | + (+ means 10≦Ki(cathepsin B)/Ki(calpain)<30) | ++ (++ means a Ki(cathepsin S)/Ki(calpain) ratio of ≧100) | ++ (++ means a Ki(cathepsin L)/Ki(calpain) ratio of ≧50)
6 | Cc1cn(-c2ncccc2C(=O)NC(Cc2ccccc2)C(=O)C(N)=O)nc1-c1ccccc1 (centres unmarked) [Example 84, N-(3-Amino-1-benzyl-2,3-dioxopropyl)-2-(4-methyl-3-phenyl-1H-pyrazol-1-yl)nicotinamide] | + (+ means 10≦Ki(cathepsin B)/Ki(calpain)<30) | ++ (++ means a Ki(cathepsin S)/Ki(calpain) ratio of ≧100) | ++ (++ means a Ki(cathepsin L)/Ki(calpain) ratio of ≧50)
7 | NC(=O)C(=O)C(Cc1ccccc1)NC(=O)c1cccnc1-n1cc2ccccc2n1 (centres unmarked) [Example 78, N-(3-Amino-1-benzyl-2,3-dioxopropyl)-2-(2H-indazol-2-yl)nicotinamide] | – | + (+ means 50≦Ki(cathepsin S)/Ki(calpain)<100) | ++ (++ means a Ki(cathepsin L)/Ki(calpain) ratio of ≧50)
8 | NC(=O)C(=O)C(Cc1ccccc1)NC(=O)c1cccnc1-n1ccc(-c2cccc3cnccc23)n1 (centres unmarked) [Example 156, N-[3-Amino-2,3-dioxo-1-(phenylmethyl)propyl]-2-(3-isoquinolin-5-yl-1H-pyrazol-1-yl)pyridine-3-carboxamide] | + (+ means 10≦Ki(cathepsin B)/Ki(calpain)<30) | ++ (++ means a Ki(cathepsin S)/Ki(calpain) ratio of ≧100) | + (+ means 30≦Ki(cathepsin L)/Ki(calpain)<50)
9 | NC(=O)C(=O)C(Cc1ccccc1)NC(=O)c1cccnc1-n1cc2c(n1)-c1ccccc1OCC2 (centres unmarked) [Example 141, N-[3-Amino-2,3-dioxo-1-(phenylmethyl)propyl]-2-(4,5-dihydro-2H-[1]benzoxepino[5,4-c]pyrazol-2-yl)pyridine-3-carboxamide] | – | ++ (++ means a Ki(cathepsin S)/Ki(calpain) ratio of ≧100) | ++ (++ means a Ki(cathepsin L)/Ki(calpain) ratio of ≧50)
10 | CC(C)CC(NC(=O)c1cc(Cl)cnc1-n1ccc(-c2ccccc2)n1)C(=O)C(N)=O (centres unmarked) [Example 32, N-{1-[Amino(oxo)acetyl]-3-methylbutyl}-5-chloro-2-(3-phenyl-1H-pyrazol-1-yl)nicotinamide] | + (+ means 10≦Ki(cathepsin B)/Ki(calpain)<30) | – | –
11 | NC(=O)C(=O)C(Cc1ccccc1)NC(=O)c1cccnc1-n1cnc(-c2ccc(Cl)cc2)c1 (centres unmarked) [Example 9, N-(3-Amino-1-benzyl-2,3-dioxopropyl)-2-[4-(4-chlorophenyl)-1H-imidazol-1-yl]nicotinamide] | – | ++ (++ means a Ki(cathepsin S)/Ki(calpain) ratio of ≧100) | + (+ means 30≦Ki(cathepsin L)/Ki(calpain)<50)
12 | Cl.NC(=O)C(=O)C(Cc1ccccc1)NC(=O)c1cccnc1-n1cnc(-c2ccc(C(F)(F)F)cc2)c1 (centres unmarked) [Example 18, N-(3-Amino-1-benzyl-2,3-dioxopropyl)-2-{4-[4-(trifluoromethyl)phenyl]-1H-imidazol-1-yl}nicotinamide hydrochloride] | – | ++ (++ means a Ki(cathepsin S)/Ki(calpain) ratio of ≧100) | + (+ means 30≦Ki(cathepsin L)/Ki(calpain)<50)
13 | NC(=O)C(=O)C(Cc1ccccc1)NC(=O)c1ccccc1-n1ccc(-c2ccccc2)n1 (centres unmarked) [Example 106, N-[3-Amino-2,3-dioxo-1-(phenylmethyl)propyl]-2-(3-phenyl-1H-pyrazol-1-yl)benzamide] | – | ++ (++ means a Ki(cathepsin S)/Ki(calpain) ratio of ≧100) | + (+ means 30≦Ki(cathepsin L)/Ki(calpain)<50)
14 | CCCCC(NC(=O)c1cccnc1-n1ccc(-c2ccc(N3CCOCC3)cc2)n1)C(=O)C(N)=O (centres unmarked) [Example 33, N-{1-[Amino(oxo)acetyl]pentyl}-2-[3-(4-morpholin-4-ylphenyl)-1H-pyrazol-1-yl]nicotinamide] | + (+ means 10≦Ki(cathepsin B)/Ki(calpain)<30) | + (+ means 50≦Ki(cathepsin S)/Ki(calpain)<100) | –
15 | CCCCC(NC(=O)c1cccnc1-n1ccc(-c2ccc(OC)cc2)n1)C(=O)C(N)=O (centres unmarked) [Example 49, N-{1-[Amino(oxo)acetyl]pentyl}-2-[3-(4-methoxyphenyl)-1H-pyrazol-1-yl]nicotinamide] | – | ++ (++ means a Ki(cathepsin S)/Ki(calpain) ratio of ≧100) | + (+ means 30≦Ki(cathepsin L)/Ki(calpain)<50)
